Measured values as given in paper PMC10077203, “Structure modification, antialgal, antiplasmodial, and toxic evaluations of a series of new marine-derived 14-membered resorcylic acid lactone derivatives” (Marine Life Science & Technology, 2021).
Values after ≈ are worked out from the molar mass of the structure shown.

Columns and labels:
P. tricornutum Bohlin = assay: Diatom growth inhibition assay (antialgal activity); format: cell-based, Phaeodactylum tricornutum Bohlin; conditions: Phaeodactylum tricornutum, 48 h, chlorophyll a of attached microalgae, read-out: EC50 P. tricornutum
Method: (§1) The antialgal activity against the microalgae P. tricornutum Bohlin, C. vulgaris, C. socialis, N. laevissima, and N. exigua was evaluated by the method of Ortlepp et al. ([2008]). Briefly, the microalgae were grown in sterilized BG11 medium under light intensity of 2500 lx and 12 h: 12 h light: dark cycle at temperature of 20 ℃. The microalgae were grown to reach the logarithmic phase (approximately 5 × 10^5 cells/ml), which were used for microalgae growth inhibition assay. The compounds 1–71 were first dissolved in a small amount of DMSO and then diluted with 0.22 μm of filtered seawater (FSW) to achieve a range of concentrations from 0.625 to 50 μg/ml. Ten microliters of the compound solution was added to multiwell Petri dishes containing a 1-mL suspension of the microalgae (approximately 12 × 10^4 cells/ml). FSW with DMSO was used as a negative control, and solutions of SeaNine 211 in seawater were used as positive controls. After the plates were incubated for 48 h (16 ± 1 ℃) under continuous light, the FSW with non-attached microalgae was removed. The amount of chlorophyll a in attached microalgae was determined with a spectrophotometer (Beckman, model DU650, USA). Then the EC50 (inhibits 50% of settlement of cyprids in comparison with the control) was calculated using the Probit software program.

C. socialis = assay: as above; format: cell-based, Chaetoceros socialis; conditions: Chaetoceros socialis, 48 h, chlorophyll a of attached microalgae, read-out: EC50 C. socialis
Method: as §1

N. laevissima = assay: as above; format: cell-based, Navicula laevissima; conditions: Sellaphora laevissima, 48 h, chlorophyll a of attached microalgae, read-out: EC50 N. laevissima
Method: as §1

N. exigua = assay: as above; format: cell-based, Navicula exigua; conditions: 48 h, chlorophyll a of attached microalgae, read-out: EC50 N. exigua
Method: as §1

C. vulgaris = assay: as above; format: cell-based, Chlorella vulgaris; conditions: Chlorella vulgaris; 48 h, chlorophyll a of attached microalgae; read-out: EC50 C. vulgaris
Method: as §1

zebrafish embryos = assay: Zebrafish embryo toxicity test; format: in vivo; conditions: for survival of zebrafish embryos: 100 μmol/L, 52 h
Method: Toxicity assays were carried out using the method of Wang et al. ([2011]). Briefly, the normal embryos were selected and transferred into a 24-well plate. The embryos at 1 h postfertilization (hpf) were exposed by immersion in E3 embryo medium containing the derivative in a 1% (v/v) DMSO final solvent concentration in a 24-well plate. The developmental phenotypes of the experimental status of the embryos were observed every 24 h for 72 h and were photographed with a charge-coupled device (CCD) camera.

Staphylococcus aureus = assay: Antimicrobial assay (serial dilution, MIC); format: cell-based; conditions: 37 °C, 24 h, read-out: minimum inhibitory concentration (MIC) S. aureus
Method: The antimicrobial activities were carried out by a serial dilution technique using 96-well microtiter plates (Pierce et al. [2008]). The derivatives were dissolved in DMSO to obtain a stock solution. Microbial species were cultured overnight at 37 °C in LB broth and diluted to 10^6 cfu/ml when used. LB broth was used as a blank control, and DMSO was used as a negative control, while ciprofloxacin was used as a positive control. The plates were incubated at 37 °C for 24 h.

[1] = tested on: P. tricornutum Bohlin, C. vulgaris, C. socialis, N. laevissima, and N. exigua; assay: Diatom growth inhibition assay, whole panel; format: cell-based; conditions: Chlorella vulgaris; selective and moderate activities; read-out: EC50 antialgal, range over compounds and algae
Method: as §1

[2] = tested on: chloroquine sensitive HB3 strain of P. falciparum; assay: In vitro antiplasmodial assay (Pico-Green growth inhibition); format: cell-based, Plasmodium falciparum; conditions: for P. falciparum SI, Selectivity Index (CC50/IC50): CC50 HUVEC / IC50 P. falciparum; for IC50: Plasmodium falciparum, Erythrocyte, HB3 strain in human erythrocytes, read-out: P. falciparum IC50
Method: In vitro antiplasmodial activity was performed by culturing human erythrocytes and infecting them with P. falciparum, as reported by Trager and Jensen ([1976]). Briefly, the chloroquine sensitive HB3 strain of P. falciparum-infected O + erythrocytes was cultured in RPMI 1640 medium supplemented with 10% human serum (from O + blood) at a hematocrit of 2% erythrocytes at 37 °C with a gas mixture containing 90% N2, 5% CO2, and 5% O2. Parasites were synchronized with 5% D-sorbitol (Lambros and Vanderberg [1979]). P. falciparum growth inhibition bioassays were performed with the procedure as described by Corbett et al. ([2004]), which used Pico-Green, a double stranded-DNA fluorescent dye to test the effect of compounds.

[3] = In vitro cytotoxicity (CC50); format: cell-based; conditions: human, HUVEC cells
Excerpt: Toxicity is a major concern of drug discovery and development, and the selectivity index (SI) is used as the evaluation parameter of drug potential of the test samples by comparing the toxicity on a human cell line (CC50) and the selective inhibitory effect on P. falciparum (IC50) calculated here as CC50/IC50. We decided to evaluate in vitro cytotoxicity of the active derivatives 38, 39, 50, 52, 65, 67, 70, and 71 by determining their 50% cytotoxic concentrations. The results are presented in Table 3, presenting only those CC50 values > 100 μmol/L, reaching selectivity indexes > 10. The cytotoxic concentration at 150 μmol/L was not be determined because of a lack of solubility of the tested molecule in the culture medium. Moreover, the toxicity of these derivatives was also evaluated against two other cell lines: hepatocellular liver carcinoma cell line (Hep G2) and cervical carcinoma (HeLa), finding CC50 values > 100 μmol/L.

[4] = tested on: larval settlement of the barnacle Balanus Amphitrite; set-up: method as in Shao et al. [2011]; conditions: ref Shao et al. [2011]; cited from earlier work

For `COc1cc2c(c(OCc3ccc(C(C)(C)C)cc3)c1)C(=O)OC(C)CC=CC(O)C(O)C(O)CC=C2` (centres unmarked) [Compound 26], the EC50 (P. tricornutum Bohlin) was 25.7 µM, the EC50 (C. socialis) was 18.4 µM and the EC50 (N. laevissima) was > 10 µM. For the same compound, the EC50 (N. exigua) was > 10 µM, the EC50 (C. vulgaris) was > 10 µM and the “death of zebrafish embryos” value (zebrafish embryos; 50 μmol/L, after 24 h) was “all embryos died”. The MIC (Staphylococcus aureus) was 25 µM (≈ 12.8 µg/mL) and the EC50 [1] was 11 to 32.5 µM.
For `COc1cc2c(c(OCc3ccc(-c4ccccc4C#N)cc3)c1)C(=O)OC(C)CC=CC1OC(C)(C)OC1C(O)CC=C2` (centres unmarked) [Compound 38], the “P. falciparum SI, Selectivity Index (CC50/IC50)” value [2] was > 12, the IC50 [2] was 8.06 µM and the CC50 [3] was > 100 µM. The “survival of zebrafish embryos” value (zebrafish embryos) was “All embryos survived”.
For `COC(=O)c1ccccc1-c1ccc(COc2cc(OC)cc3c2C(=O)OC(C)CC=CC2OC(C)(C)OC2C(O)CC=C3)cc1` (centres unmarked) [Compound 39], the “P. falciparum SI, Selectivity Index (CC50/IC50)” value [2] was > 14, the IC50 [2] was 6.69 µM and the CC50 [3] was > 100 µM. The “survival of zebrafish embryos” value (zebrafish embryos) was “All embryos survived”.
For `COc1cc(O)c2c(c1)/C=C/C[C@H](O)[C@@H]1OC(C)(C)O[C@H]1C=CC[C@H](C)OC2=O` [cochliomycin A], the “concentration of significant antifouling activity against larval settlement” value [4] is listed as 1.2 µg/mL.
